Laboratory results taken from patent US20170143701A1, “CARBOHYDRATE METABOLISM-AMELIORATING AGENT” (SUNTORY HOLDINGS LIMITED, priority 2014, published 2017).

Tested on: C57/BL6J mice
Experiment: In vivo plasma GLP-1 level-increasing action: plasma active GLP-1 level (ELISA) after oral administration
Details: 10 mg/kg oral; for Significant difference (p < 0.05) vs control group, plasma active GLP-1 level: 30 minutes, Student's t-test; for Plasma active GLP-1 level (relative value to control group as 100), average value: blood 30 minutes after, 0.5% CMC-Na group = 100
Experimental: Seven-week-old male C57/BL6J mice were purchased from CLEA Japan, Inc. for use, and they were subjected to an experiment after 1 week of a habituation period.
After the habituation period, the mice were subjected to 5.5 hours of food deprivation and 2 hours of water deprivation. Thereafter, a cyclic dipeptide dissolved or suspended in a 0.5% CMC-Na aqueous solution in 10 mg/kg was orally administered to each mouse forcibly. After 30 minutes, the blood was collected from the abdominal vena cava under anesthesia, and 1 μL of heparin sodium and 1 μL of 10 mM Sitagliptin phosphate were added to each collected blood, which was then subjected to centrifugation at 8000 rpm for 10 minutes to recover the plasma, and the plasma active GLP-1 level was measured by using the ELISA kit. In the analysis, the active GLP-1 level for a group administered with 0.5% CMC-Na aqueous solution was defined as 100, and relative values thereto were used.

| Structure (SMILES) | Significant difference (p < 0.05) vs control group, plasma active GLP-1 level (Table 10, Experiment 5) | Plasma active GLP-1 level (relative value to control group as 100), average value (Table 10, Experiment 5) | Significant difference (p < 0.05) vs control group, plasma active GLP-1 level (Table 11, Experiment 6) | Plasma active GLP-1 level (relative value to control group as 100), average value (Table 11, Experiment 6) | other results |
| --- | --- | --- | --- | --- | --- |
| O=C(O)CCC1NC(=O)C(Cc2ccccc2)NC1=O (stereo not shown) [compound 53, Cyclo(Glu-Phe)] | No | 93 | – | – | – |
| CC(C)[C@@H]1NC(=O)[C@H](Cc2ccccc2)NC1=O [compound 54, Cyclo(Val-Phe)] | No | – | – | – | Significant difference (p < 0.05) vs control group, plasma active GLP-1 level (Table 6, Experiment 1): No |
| CCC(C)C1NC(=O)C(Cc2ccccc2)NC1=O (stereo not shown) [compound 55, Cyclo(Ile-Phe)] | No | 90 | – | – | – |
| CC(O)C1NC(=O)C(Cc2ccccc2)NC1=O (stereo not shown) [compound 56, Cyclo(Thr-Phe)] | No | 87 | – | – | – |
| CC(C)[C@@H]1NC(=O)[C@H](Cc2c[nH]c3ccccc23)NC1=O [compound 61, Cyclo(Trp-Val)] | – | – | – | – | Significant difference (p < 0.05) vs control group, plasma active GLP-1 level (Table 8, Experiment 3): No; Plasma active GLP-1 level (relative value to control group as 100), average value (Table 8, Experiment 3): 117 |
| CCC(C)C1NC(=O)C(Cc2c[nH]c3ccccc23)NC1=O (stereo not shown) [compound 62, Cyclo(Trp-Ile)] | – | – | – | – | Significant difference (p < 0.05) vs control group, plasma active GLP-1 level (Table 8, Experiment 3): No; Plasma active GLP-1 level (relative value to control group as 100), average value (Table 8, Experiment 3): 178 |
| NC(=O)CC1NC(=O)C(Cc2ccccc2)NC1=O (stereo not shown) [compound 64, Cyclo(Asn-Phe)] | No | 93 | – | – | – |
| CSCCC1NC(=O)C(Cc2ccccc2)NC1=O (stereo not shown) [compound 67, Cyclo(Met-Phe)] | No | 93 | – | – | – |
| CSCCC1NC(=O)C(CCCCN)NC1=O (stereo not shown) [compound 70, Cyclo(Met-Lys)] | No | 93 | – | – | – |
| CCC(C)C1NC(=O)C(CC(C)C)NC1=O (stereo not shown) [compound 71, Cyclo(Ile-Leu)] | – | – | No | 79 | – |
| CSCC[C@@H]1NC(=O)[C@H](CC(C)C)NC1=O [compound 72, Cyclo(Met-Leu)] | – | – | No | 90 | – |
| O=C1N[C@@H](Cc2c[nH]c3ccccc23)C(=O)N[C@H]1Cc1c[nH]c2ccccc12 [compound 75, cyclo-tryptophanyl-tryptophan] | – | – | – | – | Significant difference (p < 0.05) vs control group, plasma active GLP-1 level (Table 8, Experiment 3): Yes; Plasma active GLP-1 level (relative value to control group as 100), average value (Table 8, Experiment 3): 229 |
| CC1NC(=O)C(Cc2c[nH]c3ccccc23)NC1=O (stereo not shown) [compound 76, Cyclo(Trp-Ala)] | – | – | No | 110 | – |
| O=C(O)CCC1NC(=O)C(Cc2c[nH]c3ccccc23)NC1=O (stereo not shown) [compound 77, Cyclo(Trp-Glu)] | – | – | No | 110 | – |
| C[C@@H](O)[C@@H]1NC(=O)[C@H](Cc2c[nH]c3ccccc23)NC1=O [compound 79, Cyclo(Trp-Thr)] | – | – | No | 100 | – |
| NC(=O)CC1NC(=O)C(Cc2c[nH]c3ccccc23)NC1=O (stereo not shown) [compound 81, Cyclo(Trp-Asn)] | – | – | No | 100 | – |
| NC(=O)CC[C@@H]1NC(=O)[C@H](Cc2c[nH]c3ccccc23)NC1=O [compound 82, Cyclo(Trp-Gln)] | – | – | No | 90 | – |
| CSCCC1NC(=O)C(Cc2c[nH]c3ccccc23)NC1=O (stereo not shown) [compound 83, Cyclo(Trp-Met)] | – | – | No | 110 | – |
| O=C1NC(Cc2cnc[nH]2)C(=O)NC1Cc1ccc(O)cc1 (stereo not shown) [compound 85, Cyclo(His-Tyr)] | – | – | No | 90 | – |
| CC1NC(=O)C(Cc2ccc(O)cc2)NC1=O (stereo not shown) [compound 86, Cyclo(Ala-Tyr)] | – | – | No | 90 | – |
